Measurements as given in PMC4880283, “Crystal Structures of Putative Sugar Kinases from Synechococcus Elongatus PCC 7942 and Arabidopsis Thaliana” (PLoS ONE, 2016).

Assays:
SePSK [1] = target: T1, SePSK (Synechococcus elongatus, UniProt Q31KC7); experiment: ADP-Glo kinase assay; assay type: biochemical; details: 100 uM ATP, no sugar, 1 mM MgCl2, 20 mM HEPES pH 7.4, 298 K
T1 construct: gene PSK; full length (426 aa), pET28-a (Nco I/Xho I), C-terminal His6 tag kept, E. coli BL21(DE3)

AtXK-1 [2] = target: T2, AtXK-1 (Arabidopsis thaliana, UniProt Q8L794); experiment: ADP-Glo kinase assay; assay type: biochemical; details: 100 uM ATP, no sugar, 1 mM MgCl2, 20 mM HEPES pH 7.4, 298 K
T2 construct: gene XK1; mature form (436 aa) without chloroplast transit peptide; forward primer encodes VMSGNKGT; pMCSG7, N-terminal His6 removed by TEV protease, E. coli BL21(DE3)
T2 sequence (Q8L794 43-478): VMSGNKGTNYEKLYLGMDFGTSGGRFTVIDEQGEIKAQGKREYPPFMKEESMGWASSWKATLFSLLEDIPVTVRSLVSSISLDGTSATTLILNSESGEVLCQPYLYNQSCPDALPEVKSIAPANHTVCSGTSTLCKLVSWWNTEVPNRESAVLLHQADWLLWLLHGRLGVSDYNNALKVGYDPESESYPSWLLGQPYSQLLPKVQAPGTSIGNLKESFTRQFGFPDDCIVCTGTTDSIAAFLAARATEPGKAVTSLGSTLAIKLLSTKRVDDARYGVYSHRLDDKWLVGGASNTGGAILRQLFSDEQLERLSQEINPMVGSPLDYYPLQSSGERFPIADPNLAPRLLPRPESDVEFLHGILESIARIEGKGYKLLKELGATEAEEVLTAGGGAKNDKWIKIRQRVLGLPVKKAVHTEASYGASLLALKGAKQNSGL

SePSK [3] = target: T3, SePSK (Synechococcus elongatus, UniProt Q31KC7, D221A); experiment: ADP-Glo kinase assay; assay type: biochemical; details: 5 mM D-ribulose, 100 uM ATP, 1 mM MgCl2, 20 mM HEPES pH 7.4, 298 K; activity much lower than wild type
T3 construct: gene PSK; full length (426 aa), pET28-a (Nco I/Xho I), C-terminal His6 tag kept, E. coli BL21(DE3)
T3 sequence (Q31KC7 whole entry D221A): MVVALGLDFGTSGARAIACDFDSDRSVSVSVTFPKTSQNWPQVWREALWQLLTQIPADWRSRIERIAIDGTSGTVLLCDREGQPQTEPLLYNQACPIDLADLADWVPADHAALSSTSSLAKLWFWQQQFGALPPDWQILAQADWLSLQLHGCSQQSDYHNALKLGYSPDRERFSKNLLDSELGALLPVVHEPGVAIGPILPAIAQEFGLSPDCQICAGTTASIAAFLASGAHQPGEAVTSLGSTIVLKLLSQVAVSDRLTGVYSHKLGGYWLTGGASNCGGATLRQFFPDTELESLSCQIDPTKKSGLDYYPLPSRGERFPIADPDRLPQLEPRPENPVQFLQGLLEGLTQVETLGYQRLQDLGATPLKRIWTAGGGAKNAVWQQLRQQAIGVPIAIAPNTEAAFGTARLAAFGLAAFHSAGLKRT

SePSK [4] = target: T4, SePSK (Synechococcus elongatus, UniProt Q31KC7, D8A); experiment: surface plasmon resonance (single-cycle kinetics, CM5); assay type: binding; details: rate constant (off-rate), not an equilibrium Kd; 1:1 Langmuir fit; 20 mM HEPES pH 7.5, 100 mM NaCl; 298 K
T4 construct: gene PSK; full length (426 aa), pET28-a (Nco I/Xho I), C-terminal His6 tag kept, E. coli BL21(DE3)
T4 sequence (Q31KC7 whole entry D8A): as the sequence (Q31KC7 whole entry D221A) above, with D8A, A221D counted along it

SePSK [5] = target: T4, SePSK; experiment: ADP-Glo kinase assay; assay type: biochemical; details: 5 mM D-ribulose, 100 uM ATP, 1 mM MgCl2, 20 mM HEPES pH 7.4, 298 K; activity much lower than wild type
SePSK [6] = target: T5, SePSK (Synechococcus elongatus, UniProt Q31KC7, T11A); experiment: ADP-Glo kinase assay; assay type: biochemical; details: 5 mM D-ribulose, 100 uM ATP, 1 mM MgCl2, 20 mM HEPES pH 7.4, 298 K; activity much lower than wild type
T5 construct: gene PSK; full length (426 aa), pET28-a (Nco I/Xho I), C-terminal His6 tag kept, E. coli BL21(DE3)
T5 sequence (Q31KC7 whole entry T11A): as the sequence (Q31KC7 whole entry D221A) above, with T11A, A221D counted along it

AtXK-1 [7] = target: T2, AtXK-1; experiment: X-ray crystal structure (soak); assay type: binding; details: crystal soaked in 10 mM AMP-PNP, 20 mM MgCl2; ATP site in domain II
SePSK [8] = target: T1, SePSK; experiment: X-ray crystal structure, […] A (soak); assay type: binding; details: crystal soaked in 10 mM AMP-PNP, 20 mM MgCl2; ATP site in domain II

T1 sequence (Q31KC7 whole entry): as the sequence (Q31KC7 whole entry D221A) above, with A221D counted along it

Q: Which ADP-Glo kinase assay (SePSK [1]) does the source give for `Nc1ncnc2c1ncn2[C@@H]1O[C@H](COP(=O)(O)OP(=O)(O)OP(=O)(O)O)[C@@H](O)[C@H]1O` [ATP] here?
A: both SePSK and AtXK-1 exhibited ATP hydrolysis activity

Q: What about the ADP-Glo kinase assay (AtXK-1 [2]) of the same compound?
A: both SePSK and AtXK-1 exhibited ATP hydrolysis activity

Q: For `O=C(CO)[C@H](O)[C@H](O)CO` [D-ribulose], which ADP-Glo kinase assay (SePSK [3]) is on record?
A: all of these mutants exhibit much lower activity of ATP hydrolysis after adding D-ribulose

Q: What about the “Dissociation rate constant (koff)” value (SePSK [4]) of the same compound?
A: 9 ms^-1

Q: What about the ADP-Glo kinase assay (SePSK [5]) of the same compound?
A: all of these mutants exhibit much lower activity of ATP hydrolysis after adding D-ribulose

Q: And the ADP-Glo kinase assay (SePSK [6])?
A: all of these mutants exhibit much lower activity of ATP hydrolysis after adding D-ribulose

Q: For `Nc1ncnc2c1ncn2[C@@H]1O[C@H](COP(=O)(O)OP(=O)(O)NP(=O)(O)O)[C@@H](O)[C@H]1O` [AMP-PNP], which “X-ray crystal structure (soak)” value (AtXK-1 [7]) is on record?
A: soaked the crystals of apo-SePSK and apo-AtXK-1 into the reservoir adding AMP-PNP

Q: What about the “X-ray crystal structure, 2.3 A (soak)” value (SePSK [8]) of the same compound?
A: one SePSK protein molecule is in an asymmetric unit with one AMP-PNP molecule
